Patent US8129398B2 (priority 2008, dated 2012)

What follows are molecules tested against T1, HIV-integrase (Human immunodeficiency virus type 1 group M subtype B, UniProt P12497) (assay: HIV-Integrase Inhibition Activity (SPA bead integration assay with P33 labeled target DNA)). Details: recombinant integrase, class symbols; read-out: in vitro activity.
T1 construct: Recombinant integrase (0.26 ng) was incubated with the beads
Type: biochemical
How it was run: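 Biotinylated substrate DNA on streptavidin SPA beads loaded with recombinant integrase (90 min, 37° C), washed, then inhibitor plus 0.1 fmol P33-labeled target DNA added. Reaction stopped with 10 mM EDTA; integration measured as CPM by scintillation, giving IC50 ranks.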

| Compound | IC50 |
| --- | --- |
| O=C(NC12CCC(CC1)Cn1c2nc(C(=O)NCc2ccc(F)cc2)c(O)c1=O)C(=O)N1CCN(S(=O)(=O)c2ccc(S(=O)(=O)N3CCOCC3)cc2)CC1 [Example 149, N-(4-Fluorobenzyl)-3-hydroxy-10-(((4-((4-(4-morpholinylsulfonyl)phenyl)sulfonyl)-1-piperazinyl)(oxo)acetyl)amino)-4-oxo-4,6,7,8,9,10-hexahydro-7,10-ethanopyrimido[1,2-a]azepine-2-carboxamide] | < 10 nM |
| Cc1ccc(CNC(=O)c2nc3n(c(=O)c2O)CC2CCC3(NC(=O)C(=O)N(C)C)CC2)o1 [Example 234] | < 10 nM |
| Cc1cc(CNC(=O)c2nc3n(c(=O)c2O)CC2CCC3(NS(=O)(=O)c3cn(C)c(=O)n(C)c3=O)CC2)ccc1F [Example 293, 7,10-Ethanopyrimido[1,2-a]azepine-2-carboxamide, N-[(4-fluoro-3-methylphenyl)methyl]-4,6,7,8,9,10-hexahydro-3-hydroxy-4-oxo-10-[[(1,2,3,4-tetrahydro-1,3-dimethyl-2,4-dioxo-5-pyrimidinyl)sulfonyl]amino]-] | < 10 nM |
| CN(C)C(=O)C(=O)NC12CCC(CC1)Cn1c2nc(C(=O)NCc2ccc(Cl)cc2)c(O)c1=O [Example 374] | < 10 nM |
| O=C(NC12CCC(CC1)Cn1c2nc(C(=O)NCc2ccc(F)cc2)c(O)c1=O)c1ccnc(N2CCOCC2)c1 [Example 317, 7,10-Ethanopyrimido[1,2-a]azepine-2-carboxamide, N-[(4-fluorophenyl)methyl]-4,6,7,8,9,10-hexahydro-3-hydroxy-10-[[[2-(4-morpholinyl)-4-pyridinyl]carbonyl]amino]-4-oxo-] | < 10 nM |
| CN(C)S(=O)(=O)NC12CCC(CC1)Cn1c2nc(C(=O)NCc2ccc(F)cc2)c(O)c1=O [Example 40, 10-((Dimethylsulfamoyl)amino)-N-(4-fluorobenzyl)-3-hydroxy-4-oxo-4,6,7,8,9,10-hexahydro-7,10-ethanopyrimido[1,2-a]azepine-2-carboxamide] | < 10 nM |
| O=C(Nc1ccccn1)NC12CCC(CC1)Cn1c2nc(C(=O)NCc2ccc(F)cc2)c(O)c1=O [Example 324, 7,10-Ethanopyrimido[1,2-a]azepine-2-carboxamide, N-[(4-fluorophenyl)methyl]-4,6,7,8,9,10-hexahydro-3-hydroxy-4-oxo-10-[[(2-pyridinylamino)carbonyl]amino]-] | < 10 nM |
| CC(=O)NC12CCC(CC1)n1c2nc(C(=O)NCc2ccc(F)cc2)c(O)c1=O [Example 12, 6,9-Ethano-4H-pyrido[1,2-a]pyrimidine-2-carboxamide, 9-(acetylamino)-N-[(4-fluorophenyl)methyl]-6,7,8,9-tetrahydro-3-hydroxy-4-oxo-] | < 10 nM |
| CN(C)C(=O)C(=O)NC12CCC(CC1)Cn1c2nc(C(=O)NCCc2ccc(F)cc2)c(O)c1=O [Example 358] | 10 to 100 nM |
| COc1c(C(=O)NCc2ccc(F)cc2)nc2n(c1=O)CC1CCC2(NC(=O)CCC(=O)O)CC1 [Example 308, Butanoic acid, 4-[[2-[[[(4-fluorophenyl)methyl]amino]carbonyl]-6,7,8,9-tetrahydro-3-methoxy-4-oxo-7,10-ethanopyrimido[1,2-a]azepin-10(4H)-yl]amino]-4-oxo-] | > 100 nM |
| CN1CCN(C(=O)C(=O)NC23CCC(CC2)Cn2c3nc(C(=O)NCc3ccc(F)cc3)c(O)c2=O)CC1 [Example 71, N-(4-Fluorobenzyl)-3-hydroxy-10-(((4-methyl-1-piperazinyl)(oxo)acetyl)amino)-4-oxo-4,6,7,8,9,10-hexahydro-7,10-ethanopyrimido[1,2-a]azepine-2-carboxamide] | < 10 nM |
| Cc1c(CN(C)C(=O)C(=O)N(C)C23CCC(CC2)Cn2c3nc(C(=O)NCc3ccc(F)cc3)c(O)c2=O)cnn1C [Example 171, N-((1,5-Dimethyl-1H-pyrazol-4-yl)methyl)-N′-(2-((4-fluorobenzyl)carbamoyl)-3-hydroxy-4-oxo-6,7,8,9-tetrahydro-7,10-ethanopyrimido[1,2-a]azepin-10(4H)-yl)-N,N′-dimethylethanediamide] | < 10 nM |
| CO[C@H]1C[C@@H](C(=O)NC23CCC(CC2)Cn2c3nc(C(=O)NCc3ccc(F)cc3)c(O)c2=O)N(C(C)=O)C1 [Example 271, 7,10-Ethanopyrimido[1,2-a]azepine-2-carboxamide, 10-[[[(2S,4S)-1-acetyl-4-methoxy-2-pyrrolidinyl]carbonyl]amino]-N-[(4-fluorophenyl)methyl]-4,6,7,8,9,10-hexahydro-3-hydroxy-4-oxo-] | < 10 nM |
| Cc1cc(CNC(=O)c2nc3n(c(=O)c2O)CC2CCC3(N(C)C(=O)C(=O)N(C)Cc3cn(C)nc3C)CC2)ccc1F [Example 170, N-((1,3-Dimethyl-1H-pyrazol-4-yl)methyl)-N′-(2-((4-fluoro-3-methylbenzyl)carbamoyl)-3-hydroxy-4-oxo-6,7,8,9-tetrahydro-7,10-ethanopyrimido[1,2-a]azepin-10(4H)-yl)-N,N′-dimethylethanediamide] | < 10 nM |
| CN(C)C(=O)C(=O)NC12CCC(CC1)Cn1c2nc(C(=O)NCc2ccc(F)cc2C(F)(F)F)c(O)c1=O [Example 121, N′-(2-((4-Fluoro-2-(trifluoromethyl)benzyl)carbamoyl)-3-hydroxy-4-oxo-6,7,8,9-tetrahydro-7,10-ethanopyrimido[1,2-a]azepin-10(4H)-yl)-N,N-dimethylethanediamide] | < 10 nM |
| CCN(C)C(=O)C(=O)NC12CCC(CCn3c1nc(C(=O)NCc1ccc(F)cc1)c(O)c3=O)C2 (stereo not shown) [Example 204] | < 10 nM |
| CN(C)C(=O)C(=O)NC12CCC(CC1)Cn1c2nc(C(=O)NCc2cc(Br)c(F)cc2Br)c(O)c1=O [Example 56, N′-(2-((2,5-Dibromo-4-fluorobenzyl)carbamoyl)-3-hydroxy-4-oxo-6,7,8,9-tetrahydro-7,10-ethanopyrimido[1,2-a]azepin-10(4H)-yl)-N,N-dimethylethanediamide] | < 10 nM |
| COC1CCN(C(=O)C(=O)NC23CCC(CC2)Cn2c3nc(C(=O)NCc3ccc(F)cc3)c(O)c2=O)C1 (stereo not shown) [Example 90, N-(4-Fluorobenzyl)-3-hydroxy-10-(((3-methoxy-1-pyrrolidinyl)(oxo)acetyl)amino)-4-oxo-4,6,7,8,9,10-hexahydro-7,10-ethanopyrimido[1,2-a]azepine-2-carboxamide] | < 10 nM |
| CN(C)C(=O)C(=O)NC12CCC(CC1)Cn1c2nc(C(=O)NCc2ccc(F)c(C#N)c2)c(O)c1=O [Example 132, N′-(2-((3-Cyano-4-fluorobenzyl)carbamoyl)-3-hydroxy-4-oxo-6,7,8,9-tetrahydro-7,10-ethanopyrimido[1,2-a]azepin-10(4H)-yl)-N,N-dimethylethanediamide] | < 10 nM |
| Cn1nc(C(C)(C)C)cc1C(=O)NC12CCC(CC1)n1c2nc(C(=O)NCc2ccc(F)cc2)c(O)c1=O [Example 15, 6,9-Ethano-4H-pyrido[1,2-a]pyrimidine-2-carboxamide, 9-[[[3-(1,1-dimethylethyl)-1-methyl-1H-pyrazol-5-yl]carbonyl]amino]-N-[(4-fluorophenyl)methyl]-6,7,8,9-tetrahydro-3-hydroxy-4-oxo-] | < 10 nM |
| CN(C)C(=O)C(=O)NC12CCC(CC1)Cn1c2nc(C(=O)NCCc2cccs2)c(O)c1=O [Example 354] | 10 to 100 nM |
| CC(=O)N1CCC[C@H]1C(=O)NC12CCC(CC1)Cn1c2nc(C(=O)NCc2ccc(F)c(C)c2)c(O)c1=O [Example 262, 7,10-Ethanopyrimido[1,2-a]azepine-2-carboxamide, 10-[[[(2S)-1-acetyl-2-pyrrolidinyl]carbonyl]amino]-N-[(4-fluoro-3-methylphenyl)methyl]-4,6,7,8,9,10-hexahydro-3-hydroxy-4-oxo-] | < 10 nM |
| COc1cnc(Cl)c2[nH]cc(C(=O)C(=O)NC34CCC(CC3)Cn3c4nc(C(=O)NCc4ccc(F)cc4)c(O)c3=O)c12 [Example 47, 10-(((7-Chloro-4-methoxy-1H-pyrrolo[2,3-c]pyridin-3-yl)(oxo)acetyl)amino)-N-(4-fluorobenzyl)-3-hydroxy-4-oxo-4,6,7,8,9,10-hexahydro-7,10-ethanopyrimido[1,2-a]azepine-2-carboxamide] | < 10 nM |
| O=C(NC12CCC(CCn3c1nc(C(=O)NCc1ccc(F)c(Cl)c1)c(O)c3=O)C2)C(=O)N1CC[C@@H](F)C1 (stereo partly drawn) [Example 215, 8,11-Methano-4H-pyrimido[1,2-a]azocine-2-carboxamide, N-[(3-chloro-4-fluorophenyl)methyl]-11-[[2-[(3R)-3-fluoro-1-pyrrolidinyl]-1,2-dioxoethyl]amino]-6,7,8,9,10,11-hexahydro-3-hydroxy-4-oxo-] | < 10 nM |
| COC(=O)NC12CCC(CC1)Cn1c2nc(C(=O)NCc2ccc(F)cc2)c(O)c1=O [Example 25, Methyl (2-((4-fluorobenzyl)carbamoyl)-3-hydroxy-4-oxo-6,7,8,9-tetrahydro-7,10-ethanopyrimido[1,2-a]azepin-10(4H)-yl)carbamate] | < 10 nM |
| COCCN(C)C(=O)C(=O)NC12CCC(CC1)Cn1c2nc(C(=O)NCc2ccc(F)c(Cl)c2)c(O)c1=O [Example 135, N′-(2-((3-Chloro-4-fluorobenzyl)carbamoyl)-3-hydroxy-4-oxo-6,7,8,9-tetrahydro-7,11-ethanopyrimido[1,2-a]azepin-10(4H)-yl)-N-(2-methoxyethyl)-N-methylethanediamide] | < 10 nM |
| CN(C)C(=O)C(=O)N(C)C12CCC(CC1)Cn1c2nc(C(=O)NCc2ccc3c(c2)OCO3)c(O)c1=O [Example 161, N-(2-((1,3-Benzodioxol-5-ylmethyl)carbamoyl)-3-hydroxy-4-oxo-6,7,8,9-tetrahydro-7,10-ethanopyrimido[1,2-a]azepin-10(4H)-yl)-N,N′,N′-trimethylethanediamide] | < 10 nM |
| CN(C)C(=O)CNC12CCC(CC1)Cn1c2nc(C(=O)NCc2ccc(F)cc2)c(O)c1=O [Example 30, 10-((2-(Dimethylamino)-2-oxoethyl)amino)-N-(4-fluorobenzyl)-3-hydroxy-4-oxo-4,6,7,8,9,0-hexahydro-7,10-ethanopyrimido[1,2-a]azepine-2-carboxamide] | 10 to 100 nM |
